Results on 17 compounds are retold here after patent US20080167330A1, “Carbamoylsulphoximides as protein kinase inhibitors” (priority 2006, published 2008).

Format in all cases: biochemical
The target in one assay is T1, CDK1/CycB (Homo sapiens, UniProt P06493).
T1 construct: GST; purchased ProQinase GmbH, Freiburg; host or cells: baculovirus-infected insect cells (Sf9)
Nature of the assay: CDK1/CycB kinase assay. The following applies: 0.5 μM ATP. The procedure: Recombinant CDK1- and CycB-GST fusion proteins, purified from baculovirus-infected insect cells (Sf9), were purchased from ProQinase GmbH, Freiburg. The histone IIIS used as kinase substrate can be purchased from Sigma.
CDK1/CycB (5 ng/μL) was incubated in the presence of various concentrations of test substances (0 μM, and within the range 0.01-100 μM) in 40 μL of assay buffer [50 mM Tris/HCl pH 8.0, 10 mM MgCl2, 0.1 mM Na ortho-vanadate, 1.0 mM dithiothreitol, 0.025% PEG 20000, 0.5 μM ATP, 10 μM histone IIIS, 0.2 μCi/measurement point ^33P-gamma ATP, 0.05% NP40, 1.25% dimethyl sulphoxide] at 22° C. for 10 min. The reaction was stopped by adding EDTA solution (250 mM, pH 8.0, 15 μl/measurement point). 15 μl of each reaction mixture were loaded onto P30 filter strips (from Wallac), and non-incorporated ^33P-ATP was removed by washing the filter strips three times in 0.5% strength phosphoric acid for 10 min each time. After the filter strips had been dried at 70° C. for 1 hour, the filter strips were covered with scintillator strips (MeltiLex™ A, from Wallac) and baked at 90° C. for 1 hour. The amount of incorporated ^33P (substrate phosphorylation) was determined by scintillation measurement in a gamma radiation counter (Wallac).
(§1) The measured data were normalized to 0% inhibition (enzyme reaction without inhibitor) and 100% inhibition (all assay components except enzyme). The IC50 values were determined by means of a 4-parameter fit using the company's own software.

In a further assay the target is T2, CDK2/CycE (Homo sapiens, UniProt P24941).
T2 construct: GST; purchased ProQinase GmbH, Freiburg; host or cells: baculovirus-infected insect cells (Sf9)
Nature of the assay: CDK2/CycE kinase assay. The following applies: 0.5 μM ATP. The procedure: Recombinant CDK2- and CycE-GST fusion proteins, purified from baculovirus-infected insect cells (Sf9), were purchased from ProQinase GmbH, Freiburg. The histone IIIS used as kinase substrate was purchased from Sigma. CDK2/CycE (1.25 ng/μL) was incubated in the presence of various concentrations of test substances (0 μM, and within the range 0.01-100 μM) in 40 μL of assay buffer [50 mM Tris/HCl pH 8.0, 10 mM MgCl2, 0.1 mM Na ortho-vanadate, 1.0 mM dithiothreitol, 0.5 μM ATP, 0.2% PEG20000, 10 μM histone IIIS, 0.2 μCi/measurement point ^33P-gamma ATP, 0.05% NP40, 1.25% dimethyl sulphoxide] at 22° C. for 10 min. The reaction was stopped by adding EDTA solution (250 mM, pH 8.0, 15 μl/measurement point).
15 μl of each reaction mixture were loaded onto P30 filter strips (from Wallac), and non-incorporated ^33P-ATP was removed by washing the filter strips three times in 0.5% strength phosphoric acid for 10 min each time.
After the filter strips had been dried at 70° C. for 1 hour, the filter strips were covered with scintillator strips (MeltiLex™ A, from Wallac) and baked at 90° C. for 1 hour. The amount of incorporated ^33P (substrate phosphorylation) was determined by scintillation measurement in a gamma radiation counter (Wallac).
as §1

Assay [1] concerns Aurora C, CDK1/CycB, CDK2/CycE, KDR (VEGFR2). Nature of the assay: various kinase assays taken together (selectivity profile). The following applies: comparison across the kinase assays, in words. The procedure: The compounds of Examples 1 to 22 were tested for their inhibitory effect in the various kinase assays and in a proliferation assay with MCF7 human breast tumour cells (Tab. 1). […] Exemplary compounds 1-8, 10-12, 15, 17-20 inhibit the proliferation of human MCF7 breast tumour cells with half-maximum concentrations in the submicromolar range.

T1 sequence (P06493 whole entry): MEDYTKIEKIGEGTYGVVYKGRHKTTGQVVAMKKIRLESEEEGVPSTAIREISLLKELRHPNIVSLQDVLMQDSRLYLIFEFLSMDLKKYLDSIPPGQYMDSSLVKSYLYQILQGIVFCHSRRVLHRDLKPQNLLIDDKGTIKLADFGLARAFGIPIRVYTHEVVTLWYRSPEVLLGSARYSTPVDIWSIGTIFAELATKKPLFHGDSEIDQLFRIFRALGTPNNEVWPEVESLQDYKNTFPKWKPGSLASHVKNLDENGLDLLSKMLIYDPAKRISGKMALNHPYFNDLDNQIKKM
T1 sequence (P14635 whole entry partner): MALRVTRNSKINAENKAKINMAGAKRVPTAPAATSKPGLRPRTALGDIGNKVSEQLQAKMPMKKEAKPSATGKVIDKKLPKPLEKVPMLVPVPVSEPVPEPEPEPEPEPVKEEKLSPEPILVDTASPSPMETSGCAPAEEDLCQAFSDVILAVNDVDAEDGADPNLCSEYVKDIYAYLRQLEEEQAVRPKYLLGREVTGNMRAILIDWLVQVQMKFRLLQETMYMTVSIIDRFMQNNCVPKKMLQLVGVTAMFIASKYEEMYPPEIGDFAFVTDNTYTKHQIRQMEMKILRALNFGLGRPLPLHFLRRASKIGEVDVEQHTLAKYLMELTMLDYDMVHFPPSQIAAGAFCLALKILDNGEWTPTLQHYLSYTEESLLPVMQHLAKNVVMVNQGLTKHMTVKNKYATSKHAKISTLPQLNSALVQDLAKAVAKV

Take `C[C@@H](Nc1nc(Nc2cccc(NC(=O)N=S(C)(C)=O)c2)ncc1Br)C(C)(C)O` [Example 1, N-({3-[(5-Bromo-4-{[(R)-2-hydroxy-1,2-dimethylpropyl]amino}pyrimidin-2-yl)amino]phenyl}carbamoyl)-S,S-dimethylsulphoximide]: the values for the IC50 against CDK1/CycB and at CDK2/CycE were 24 nM and 9 nM, respectively.

Turning to `C[C@@H](Nc1nc(Nc2ccc(NC(=O)N=S(C)(C)=O)cc2)ncc1Br)C(C)(C)O` [Example 2, N-({4-[(5-Bromo-4-{[(R)-2-hydroxy-1,2-dimethylpropyl]amino}pyrimidin-2-yl)-amino]phenyl}carbamoyl)-S,S-dimethylsulphoximide], the IC50 (in general, the point on the concentration scale where inhibition reaches its midpoint) is 21 nM at CDK1/CycB and 10 nM on CDK2/CycE.

Take `C[C@@H](O)[C@@H](C)Nc1nc(Nc2ccc(NC(=O)N=S(C)(C)=O)cc2)ncc1Br` [Example 3, N-({4-[(5-Bromo-4-{[(1R,2R)-2-hydroxy-1-methylpropyl]amino}pyrimidin-2-yl)amino]phenyl}carbamoyl)-S,S-dimethylsulphoximide]: the IC50 against CDK1/CycB worked out at 7 nM; at CDK2/CycE it was 5 nM.

`C[C@@H](O)[C@@H](C)Oc1nc(Nc2ccc(NC(=O)N=S(C)(C)=O)cc2)ncc1Br` [Example 4, N-({4-[(5-Bromo-4-{[(1R,2R)-2-hydroxy-1-methylpropyl]oxy}pyrimidin-2-yl)amino]phenyl}carbamoyl)-S,S-dimethylsulphoximide]: the IC50 against CDK1/CycB and on CDK2/CycE was 5 nM throughout.

For `C[C@@H](O)[C@@H](C)Nc1nc(Nc2cccc(NC(=O)N=S(C)(C)=O)c2)ncc1Br` [Example 5, N-({3-[(5-Bromo-4-{[(1R,2R)-2-hydroxy-1-methylpropyl]amino}pyrimidin-2-yl)amino]phenyl}carbamoyl)-S,S-dimethylsulphoximide], the IC50 is 10 nM against CDK1/CycB and 5 nM against CDK2/CycE.

On to `C[C@@H](O)[C@@H](C)Oc1nc(Nc2cccc(NC(=O)N=S(C)(C)=O)c2)ncc1Br` [Example 6, N-({3-[(5-Bromo-4-{[(1R,2R)-2-hydroxy-1-methylpropyl]oxy}pyrimidin-2-yl)amino]phenyl}carbamoyl)-S,S-dimethylsulphoximide], for which the IC50 against CDK1/CycB and at CDK2/CycE was 7 nM throughout.

Consider `C[C@@H](O)[C@@H](C)Nc1nc(Nc2ccc(F)c(NC(=O)N=S(C)(C)=O)c2)ncc1Br` [Example 7, N-({5-[(5-Bromo-4-{[(1R,2R)-2-hydroxy-1-methylpropyl]amino}pyrimidin-2-yl)amino]-2-fluorophenyl}carbamoyl)-S,S-dimethylsulphoximide], for which the IC50 against CDK1/CycB is 10 nM; on CDK2/CycE it was 3 nM.

For the compound `Cc1ccc(Nc2ncc(Br)c(N[C@H](C)[C@@H](C)O)n2)cc1NC(=O)N=S(C)(C)=O` [Example 8, N-({5-[(5-Bromo-4-{[(1R,2R)-2-hydroxy-1-methylpropyl]amino}pyrimidin-2-yl)amino]-2-methylphenyl}carbamoyl)-S,S-dimethylsulphoximide], the half-inhibitory concentration (IC50) at CDK1/CycB was found to be 21 nM; against CDK2/CycE, 12 nM.

With `COc1ccc(Nc2ncc(Br)c(N[C@H](C)[C@@H](C)O)n2)cc1NC(=O)N=S(C)(C)=O` [Example 10, N-({5-[(5-Bromo-4-{[(1R,2R)-2-hydroxy-1-methylpropyl]amino}pyrimidin-2-yl)amino]-2-methoxyphenyl}carbamoyl)-S,S-dimethylsulphoximide], the results for the IC50 at CDK1/CycB and against CDK2/CycE were 26 nM and 20 nM, respectively.

As to `COc1cc(Nc2ncc(Br)c(N[C@H](C)[C@@H](C)O)n2)ccc1NC(=O)N=S(C)(C)=O` [Example 11, N-({4-[(5-Bromo-4{[(1R,2R)-2-hydroxy-1-methylpropyl]amino}pyrimidin-2-yl)amino]-2-methoxyphenyl}carbamoyl)-S,S-dimethylsulphoximide], the values for the IC50 against CDK1/CycB and against CDK2/CycE were 46 nM and 19 nM, respectively.

As for `C[C@@H](O)[C@@H](C)Nc1nc(Nc2ccc(Cl)c(NC(=O)N=S(C)(C)=O)c2)ncc1Br` [Example 12, N-({5-[(5-Bromo-4-{[(1R,2R)-2-hydroxy-1-methylpropyl]amino}pyrimidin-2-yl)amino]-2-chlorophenyl}carbamoyl)-S,S-dimethylsulphoximide], the IC50 against CDK1/CycB was 18 nM; at CDK2/CycE, 9 nM.

For `C[C@@H](O)[C@@H](C)Nc1nc(Nc2ccc(NC(=O)N=S(C)(C)=O)cc2)ncc1C(F)(F)F` [Example 15], the IC50 against CDK1/CycB was 15 nM; at CDK2/CycE, 9 nM. Besides, the selectivity profile entry in assay [1] is recorded as “CDK-selective”.

For the compound `CS(C)(=O)=NC(=O)Nc1ccc(Nc2ncc(Br)c(Nc3ccc4[nH]cnc4c3)n2)cc1` [Example 16, N-[(4-{[4-(1H-Benzimidazol-5-ylamino)-5-bromopyrimidin-2-yl]amino}phenyl)-carbamoyl]-S,S-dimethylsulphoximide], the values for the IC50 on CDK1/CycB and at CDK2/CycE were 140 nM and 330 nM, respectively. Besides, in assay [1], the selectivity profile entry is “preferential KDR inhibition”.

Take `C[C@@H](O)[C@@H](C)Nc1nc(Nc2cccc(C(=O)N=S(C)(C)=O)c2)ncc1Br` [Example 17, N-{3-[(5-Bromo-4-{[(1R,2R)-2-hydroxy-1-methylpropyl]amino}pyrimidin-2-yl)amino]benzoyl}-S,S-dimethylsulphoximide]: the results for the IC50 on CDK1/CycB and on CDK2/CycE were 10 nM and 9 nM, respectively. Also, the selectivity profile result in assay [1] is “CDK-selective”.

On to `C[C@@H](O)[C@@H](C)Nc1nc(Nc2ccc(C(=O)N=S(C)(C)=O)cc2)ncc1Br` [Example 18, N-{4-[(5-Bromo-4-{[(1R,2R)-2-hydroxy-1-methylpropyl]amino}pyrimidin-2-yl)amino]benzoyl}-S,S-dimethylsulphoximide], for which the results for the IC50 on CDK1/CycB and on CDK2/CycE were 18 nM and 9 nM, respectively.

For the compound `C[C@@H](Nc1nc(Nc2ccc(C(=O)N=S(C)(C)=O)cc2)ncc1Br)C(C)(C)O` [Example 19, N-{4-[(5-Bromo-4-{[(R)-2-hydroxy-1,2-dimethylpropyl]amino}pyrimidin-2-yl)amino]benzoyl}S,S-dimethylsulphoximide], the values for the IC50 on CDK1/CycB and on CDK2/CycE were 42 nM and 11 nM, respectively.

Regarding `C[C@@H](O)[C@@H](C)Oc1nc(Nc2ccc(C(=O)N=S(C)(C)=O)cc2)ncc1Br` [Example 20, N-{4-[(5-Bromo-4-{[(1R,2R)-2-hydroxy-1-methylpropyl]oxy}pyrimidin-2-yl)amino]benzoyl}-S,S-dimethylsulphoximide], the IC50 on CDK1/CycB is 17 nM; at CDK2/CycE, 12 nM.
